According to US20060130162A1, “Shrimp and the production thereof” (priority 2002, published 2006):
Several values for one entry are separate records, joined by “and”; a condition that tells them apart may be missing. Equal entries are not always repeated.

Test system: Juvenile shrimp
Assay: Carotenoid content of shrimp fed lutein-enriched Designer Diet (HPLC carotenoid analysis)
Format: in vivo
Parameters: AsX (astaxanthin) content of shrimp / Lutein content of shrimp / Other carotenoid content of shrimp / Total carotenoid content of shrimp / AsX (astaxanthin) content of shrimp, Mean / Lutein content of shrimp, Mean / Other carotenoid content of shrimp, Mean / Total carotenoid content of shrimp, Mean: unit not given here
Description: Juvenile shrimp (1-5 g) were cultured in 20 L tanks (5-10 shrimp per tank) at 23 degrees Celsius using standard shrimp diets (e.g., Rangen 35/2.5 shrimp diet). Test diets were prepared containing a 2:1 mixture of Rangen control feed with Lutein (Twin Labs) for a final lutein concentration in the diet of 8g/kg diet. Shrimp were fed at 0.3% body weight 2×/day for the duration of the experiment.
Following 14 days of feeding, the shrimp were collected, frozen to −20° C. and lyophilized prior to chemical analysis.

[1] = Mean of lutein group, lutein 8g/kg diet, 14 days of feeding
[2] = individual sample, lutein 8g/kg diet, 14 days of feeding

CC1=C[C@H](O)CC(C)(C)[C@H]1/C=C/C(C)=C/C=C/C(C)=C/C=C/C=C(C)/C=C/C=C(C)/C=C/C1=C(C)C[C@@H](O)CC1(C)C [Lutein]
A/L (astaxanthin / lutein), Mean [1]: 2.23.
A/T (astaxanthin / total carotenoids), Mean [1]: 53%
AsX (astaxanthin) content of shrimp, Mean [1]: 6.24
L + O/T (lutein + other / total carotenoids), Mean [1]: 47%
L/T (lutein / total carotenoids), Mean [1]: 33%
Lutein content of shrimp, Mean [1]: 4.64
Other carotenoid content of shrimp, Mean [1]: 1.62
Total carotenoid content of shrimp, Mean [1]: 12.49
Effect of lutein enrichment on shrimp appearance (FIG. 1) (before cooking and after cooking, compared with non-enriched shrimp): larger, more colorful
A/L (astaxanthin / lutein) [2]: 3.79 and 1.80 and 0.49 and 1.09 and 3.99
A/T (astaxanthin / total carotenoids) [2]: 68% and 54% and 30% and 45% and 70%
AsX (astaxanthin) content of shrimp [2]: 6.45 and 4.91 and 4.63 and 8.37 and 6.82
L + O/T (lutein + other / total carotenoids) [2]: 32% and 46% and 70% and 55% and 30%
L/T (lutein / total carotenoids) [2]: 18% (2×) and 30% and 61% and 41%
Lutein content of shrimp [2]: 1.70 and 2.73 and 9.39 and 7.65 and 1.71
Other carotenoid content of shrimp [2]: 1.38 and 1.40 and 1.47 and 2.70 and 1.15
Total carotenoid content of shrimp [2]: 9.53 and 9.04 and 15.49 and 18.72 and 9.68
